Columns and labels:
[1] = 96-well microplate assay, fluorescence response to H2O2; settings: for response to H2O2 (in words): 96-well microplate assay; for detection limit for H2O2: 150 μl probe solution, 25° C., 60 minutes, RSD n=8; for detection limit for H2O2 / Fluorescence Intensity (RFU), H2O2: HEPES pH 7.4; for Fluorescence Intensity (RFU), H2O2: value minus intensity in the absence of H2O2, probe 1a 25 μM, 1b and 1c 5 μM; for slope of the linear calibration curve: H2O2 calibration, detection limit to 92.3 nmol; for upper end of the linear calibration range: linear from the detection limit upward
Protocol: In this assay, a DMSO solution of the compound 1a (10 mM), a DMSO solution of the compound 1b (2 mM), and a DMSO solution of the compound 1c (2 mM) were provided first and then these solutions were diluted 400-fold with a HEPES buffer solution (pH 7.4, 10 mM). Thus, probe solutions of the respective compounds were prepared. In the respective probe solutions, the concentration of the compound 1a was 25 μM, the concentration of the compound 1b was 5 μM, and the concentration of the compound 1c was 5 μM. Then, 150 μl of each of the probe solutions was allowed to react with H2O2 water (0.92 mM, 10 μl) at 25° C. for 60 minutes. The detection limits of the compounds 1a, 1b, and 1c were 46.0 (RSD, n=8; 1.2%), 23.1 (0.5%), and 4.6 (1.0%) pmol, respectively, which are all acceptable for cellular level detection. With regard to each of the compounds 1a, 1b, and 1c, a linear calibration curve with a correlation coefficient of at least 0.999 was obtained when the detected value was in the range from the detection limit to 92.3 nmol.
(§1) The fluorescence response to H2O2 achieved by each of the thus-obtained compounds 1a, 1b, and 1c was compared with that to HO. (a hydroxyl radical) and that to O2^−. (a superoxide). As a source of HO., the Fenton reaction between H2O2 (1 mM, 10 μl) and Fe^2+ (5 mM, 10 μl) was used. On the other hand, O2^−. was generated by causing an enzyme reaction between hypoxanthine (HPX) (1 mM, 10 μl) and xanthine oxidase (XO) (0.26 U/ml, 10 μl).
(§2) In Table 1, fluorescence responses observed after reacting the compounds 1a, 1b, and 1c with H2O2, HO., or O2^−. were compared with each other. Numbers in Table 1 represent the fluorescence intensity (RFU). Note here that the RFU is a value obtained by subtracting a fluorescence intensity obtained in the absence of H2O2 or HPX from the measured value.

[2] = microplate assay, fluorescence response to HO. from the Fenton reaction (H2O2 + Fe2+); settings: for Fluorescence Intensity (RFU), H2O2 + Fe^2+: H2O2 (1 mM, 10 μl) + Fe2+ (5 mM, 10 μl) as HO. source, blank subtracted
Protocol: as §1, §2

[3] = microplate assay, fluorescence response in the HPX-XO system (O2-. source), with or without catalase or SOD; settings: for Fluorescence Intensity (RFU), HPX + XO + catalase: HPX + XO with catalase (5000 U/ml, 10 μl); for Fluorescence Intensity (RFU), HPX + XO + catalase / Fluorescence Intensity (RFU), HPX + XO + SOD: blank subtracted; for Fluorescence Intensity (RFU), HPX + XO + SOD: HPX + XO with superoxide dismutase (10 μl); for fluorescence response in the HPX-XO system on addition of catalase (in words): catalase 5000 U/ml; for fluorescence response in the HPX-XO system on addition of catalase (in words) / fluorescence response in the HPX-XO system in the presence of SOD (in words): 10 μl; for Fluorescence Intensity (RFU), HPX + XO: hypoxanthine (1 mM, 10 μl) + xanthine oxidase (0.26 U/ml, 10 μl), blank without HPX subtracted; for fluorescence response in the HPX-XO system in the presence of SOD (in words): superoxide dismutase
Protocol: as §1, §2

[4] = test system: Chlamydomonas reinhardtii cells; assay: fluorescence response of probe-loaded alga cells stimulated with Cu2+, PQ or MB under light or in the dark; assay type: cell-based; settings: FIG. 1; for fluorescence increment (in words) / selectivity for Cu2+ plus light conditions over PQ and MB (in words) / fluorescence response of loaded cells (in words): probe 25 μM; for fluorescence increment (in words): Cu2+ and irradiation with light; for fluorescence response of loaded cells (in words): incubation under irradiation with light in the presence of Cu2+, 60 minutes
Description: Photic stimulation can cause oxidative stress in green algae. Stimulation with Cu^2+ causes intracellular generation of various ROS such as superoxides, hydrogen peroxide, and hydroxyl radicals. Furthermore, when alga cells are activated specifically by paraquat (PQ) or methylene blue (MB), oxidative stress can be caused by the generation of a superoxide or ^1O2. […] In order to load alga cells with the compounds 1a, 1b, and 1c, the derivatives 2a, 2b, and 2c (Scheme 3) as acetylated forms of the compounds 1a, 1b, and 1c were used.
More specifically, first, the compounds 2a, 2b, and 2c respectively were dissolved in DMSO, thus obtaining 10 mM stock solutions of the respective compounds. Next, Chlamydomonas reinhardtii (IAM C-238) cultured by an ordinary method was inoculated into 3 ml of an MBM culture solution. Thereafter, the MBM culture solution was loaded with 7.5 μl of each of the stock solutions of the compounds 2a, 2b, and 2c in the dark at 25° C. for 30 minutes. Thus, probe-loaded cell suspensions were prepared. Furthermore, a 96-well tissue culture plate was provided, and 50 μl of a MBM solution containing the indicated concentration of CuCl2, PQ, or […] was added to the plate. The probe-loaded cell suspension (50 μl) was inoculated to the plate and then incubated under irradiation with light or in the dark. After 60 minutes, fluorescence in the cells was measured using a fluorescence measuring device (trade name “CytoFluor II multiwell fluorescence plate reader”, PerSeptive Biosystems, USA). For the measurement, an excitation filter was set at 485±20 nm and an emission filter was set at 530±25 nm.
FIG. 1 contains graphs showing the correlation between a concentration and a fluorescence increment when the fluorescence response was measured by loading Chlamydomonas reinhardtii cells with the compound 2a, 2b, or 2c (25 μM) or DCFH-DA (50 μM) in the dark at 25° C. for 30 minutes and incubating them in 96-well microplates under irradiation with light or in the dark in the presence of Cu^2+, PQ, or MB for 60 minutes. In FIG. 1, an empty circle indicates the result obtained when the incubation was carried out under irradiation with light and a solid circle indicates the result obtained when the incubation was carried out in the dark.

[5] = microplate assay of the acetylated forms as hydrogen peroxide-detecting probe (esterase requirement); settings: microplate assay similar to that of compounds 1

Row | Compound | Fluorescence Intensity (RFU), HPX + XO + catalase [3] [RFU] | Fluorescence Intensity (RFU), HPX + XO + SOD [3] [RFU] | fluorescence response in the HPX-XO system on addition of catalase (in words) [3] | Fluorescence Intensity (RFU), HPX + XO [3] [RFU] | fluorescence response in the HPX-XO system in the presence of SOD (in words) [3] | requirement of esterase to serve as hydrogen peroxide-detecting probe (in words) [5] | response to H2O2 (in words) [1] | detection limit for H2O2 [1] [pmol] | Fluorescence Intensity (RFU), H2O2 [1] [RFU] | slope of the linear calibration curve [1] [au/nmol] | upper end of the linear calibration range [1] [nmol] | response to HO. compared with that to H2O2 (in words) [2] | Fluorescence Intensity (RFU), H2O2 + Fe^2+ [2] [RFU] | fluorescence increment (in words) [4] | selectivity for Cu2+ plus light conditions over PQ and MB (in words) [4] | fluorescence response of loaded cells (in words) [4] | detection of ROS on Cu2+ stimulation (in words) ([4]; DCFH-DA 50 μM) | detection of oxidative stress caused by PQ and MB (in words) ([4]; DCFH-DA 50 μM)
1 | O=C(O)c1ccccc1-c1c2ccc(=O)cc-2oc2cc(OS(=O)(=O)c3c(F)c(F)c(F)c(F)c3F)ccc12 [Compound 1a] | −49 | 899 | eliminated completely | 566 | maintained or increased |  | H2O2 concentration-dependent response | 46.0 | 1150 | 172 | 92.3 | much smaller than those to H2O2 | 28 |  |  |  |  | 
2 | CC(=O)Oc1ccc2c(c1)Oc1cc(OS(=O)(=O)c3c(F)c(F)c(F)c(F)c3F)ccc1C21OC(=O)c2ccccc21 (stereo not drawn) [Compound 2a] |  |  |  |  |  | esterase was necessary |  |  |  |  |  |  |  | great fluorescence increments | high selectivity | exhibited fluorescence response in a stimulation concentration-dependent manner |  | 
3 | CC(=O)Oc1cc2c(cc1Cl)C1(OC(=O)c3ccccc31)c1cc(Cl)c(OS(=O)(=O)c3c(F)c(F)c(F)c(F)c3F)cc1O2 (stereo not drawn) [Compound 2b] |  |  |  |  |  | esterase was necessary |  |  |  |  |  |  |  |  |  | exhibited fluorescence response in a stimulation concentration-dependent manner |  | 
4 | CC(=O)Oc1cc2c(cc1F)C1(OC(=O)c3ccccc31)c1cc(F)c(OS(=O)(=O)c3c(F)c(F)c(F)c(F)c3F)cc1O2 (stereo not drawn) [Compound 2c] |  |  |  |  |  | esterase was necessary |  |  |  |  |  |  |  | great fluorescence increments | high selectivity | exhibited fluorescence response in a stimulation concentration-dependent manner |  | 
5 | CC(=O)Oc1cc2c(cc1Cl)C(c1ccccc1C(=O)O)c1cc(Cl)c(OC(C)=O)cc1O2 [DCFH-DA, reference compound] |  |  |  |  |  |  |  |  |  |  |  |  |  |  |  |  | detected ROS generated by the Cu^2+ stimulation | detected the oxidative stress caused by PQ and MB effectively

Second part, led by results:

Row | Fluorescence Intensity (RFU), HPX + XO + catalase [3] [RFU] | Fluorescence Intensity (RFU), HPX + XO + SOD [3] [RFU] | fluorescence response in the HPX-XO system on addition of catalase (in words) [3] | Fluorescence Intensity (RFU), HPX + XO [3] [RFU] | fluorescence response in the HPX-XO system in the presence of SOD (in words) [3] | requirement of esterase to serve as hydrogen peroxide-detecting probe (in words) [5] | Compound | response to H2O2 (in words) [1] | detection limit for H2O2 [1] [pmol] | Fluorescence Intensity (RFU), H2O2 [1] [RFU] | slope of the linear calibration curve [1] [au/nmol] | upper end of the linear calibration range [1] [nmol] | response to HO. compared with that to H2O2 (in words) [2] | Fluorescence Intensity (RFU), H2O2 + Fe^2+ [2] [RFU] | fluorescence increment (in words) [4] | selectivity for Cu2+ plus light conditions over PQ and MB (in words) [4] | fluorescence response of loaded cells (in words) [4] | detection of ROS on Cu2+ stimulation (in words) ([4]; DCFH-DA 50 μM) | detection of oxidative stress caused by PQ and MB (in words) ([4]; DCFH-DA 50 μM)
6 | −51 | 1733 | eliminated completely | 1733 | maintained or increased |  | O=C(O)c1ccccc1-c1c2cc(Cl)c(=O)cc-2oc2cc(OS(=O)(=O)c3c(F)c(F)c(F)c(F)c3F)c(Cl)cc12 [Compound 1b] | H2O2 concentration-dependent response | 23.1 | 2193 | 215 | 92.3 | much smaller than those to H2O2 | 195 |  |  |  |  | 
7 | −44 | 3340 | eliminated completely | 3580 | maintained or increased |  | O=C(O)c1ccccc1-c1c2cc(F)c(=O)cc-2oc2cc(OS(=O)(=O)c3c(F)c(F)c(F)c(F)c3F)c(F)cc12 [Compound 1c] | H2O2 concentration-dependent response | 4.6 | 4375 | 591 | 92.3 | much smaller than those to H2O2 | 184 |  |  |  |  | 

From US7491832B2, “Sulfonate compound and fluorescent probe using the same” (Osaka Industrial Promotion Organization, priority 2003, dated 2009)
